Residual activity data for one compound are collected here from the kinase profiling compilation of Christmann-Franck et al. (2016).

“And” between values parts separate entries of the source, which are not always exact repeats. Equal entries are not always repeated.

Some targets named below: ALK (human) (UniProt Q9UM73); CDK5 CDK5R1 p25 (human) (UniProt Q00535+Q15078); ITK (human) (UniProt Q08881); PIM1 (human) (UniProt P11309); AKT1 (human) (UniProt P31749); PRKACA (human) (UniProt P17612); CAMKK1 (human) (UniProt Q8N5S9); LYN (human) (UniProt P07948); MARK4 (human) (UniProt Q96L34); MAP2K1 (human) (UniProt Q02750).
What all share (assay): radiometric filter-binding kinase assay, Kinase HotSpot
Holding throughout (details): compound 0.5 µM; ATP 10 µM

LYN (human), sequence (P07948 whole entry, looked up): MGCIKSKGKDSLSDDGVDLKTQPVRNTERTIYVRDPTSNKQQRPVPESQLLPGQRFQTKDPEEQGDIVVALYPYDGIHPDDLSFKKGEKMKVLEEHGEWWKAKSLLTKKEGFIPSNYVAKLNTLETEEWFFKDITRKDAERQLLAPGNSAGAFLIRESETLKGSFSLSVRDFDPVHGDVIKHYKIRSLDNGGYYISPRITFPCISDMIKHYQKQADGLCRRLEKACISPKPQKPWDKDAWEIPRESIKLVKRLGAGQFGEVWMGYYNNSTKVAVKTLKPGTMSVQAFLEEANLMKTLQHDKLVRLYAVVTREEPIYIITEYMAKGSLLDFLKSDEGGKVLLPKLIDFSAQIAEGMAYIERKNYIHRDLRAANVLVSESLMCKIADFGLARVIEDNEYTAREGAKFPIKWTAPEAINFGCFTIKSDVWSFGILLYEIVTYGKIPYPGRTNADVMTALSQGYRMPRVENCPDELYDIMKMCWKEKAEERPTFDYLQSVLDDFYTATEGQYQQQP
AKT1 (human), sequence (P31749 whole entry, looked up): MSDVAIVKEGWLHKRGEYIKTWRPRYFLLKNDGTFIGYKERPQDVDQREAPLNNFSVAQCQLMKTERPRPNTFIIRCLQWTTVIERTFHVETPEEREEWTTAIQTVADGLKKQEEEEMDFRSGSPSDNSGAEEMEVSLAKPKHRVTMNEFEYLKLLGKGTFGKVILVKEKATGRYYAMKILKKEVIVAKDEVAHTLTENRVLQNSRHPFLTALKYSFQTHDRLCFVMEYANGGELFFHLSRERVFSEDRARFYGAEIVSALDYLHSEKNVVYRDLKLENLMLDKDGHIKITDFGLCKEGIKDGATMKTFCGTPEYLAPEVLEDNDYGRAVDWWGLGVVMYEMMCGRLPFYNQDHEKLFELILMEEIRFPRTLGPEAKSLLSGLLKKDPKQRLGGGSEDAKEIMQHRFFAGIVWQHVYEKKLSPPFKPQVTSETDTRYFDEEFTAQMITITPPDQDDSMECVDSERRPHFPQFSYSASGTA
CDK5 CDK5R1 p25 (human), sequence (Q00535 whole entry, looked up): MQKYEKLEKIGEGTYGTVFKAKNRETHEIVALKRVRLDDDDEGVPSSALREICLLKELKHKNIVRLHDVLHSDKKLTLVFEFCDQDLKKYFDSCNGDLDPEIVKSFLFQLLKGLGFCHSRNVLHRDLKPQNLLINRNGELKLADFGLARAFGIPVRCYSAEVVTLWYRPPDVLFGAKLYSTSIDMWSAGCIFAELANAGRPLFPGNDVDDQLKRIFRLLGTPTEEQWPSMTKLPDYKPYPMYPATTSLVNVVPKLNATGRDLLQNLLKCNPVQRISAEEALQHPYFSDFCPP
CDK5 CDK5R1 p25 (human), sequence (Q15078 whole entry, looked up): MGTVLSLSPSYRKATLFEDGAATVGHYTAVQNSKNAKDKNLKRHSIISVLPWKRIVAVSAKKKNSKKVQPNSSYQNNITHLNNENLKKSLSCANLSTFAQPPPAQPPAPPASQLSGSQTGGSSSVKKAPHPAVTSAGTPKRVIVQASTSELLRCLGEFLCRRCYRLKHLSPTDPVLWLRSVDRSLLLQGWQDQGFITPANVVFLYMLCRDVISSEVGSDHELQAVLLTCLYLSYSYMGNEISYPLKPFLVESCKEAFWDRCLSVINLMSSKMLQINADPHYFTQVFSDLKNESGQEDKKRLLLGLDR
MAP2K1 (human), sequence (Q02750 whole entry, looked up): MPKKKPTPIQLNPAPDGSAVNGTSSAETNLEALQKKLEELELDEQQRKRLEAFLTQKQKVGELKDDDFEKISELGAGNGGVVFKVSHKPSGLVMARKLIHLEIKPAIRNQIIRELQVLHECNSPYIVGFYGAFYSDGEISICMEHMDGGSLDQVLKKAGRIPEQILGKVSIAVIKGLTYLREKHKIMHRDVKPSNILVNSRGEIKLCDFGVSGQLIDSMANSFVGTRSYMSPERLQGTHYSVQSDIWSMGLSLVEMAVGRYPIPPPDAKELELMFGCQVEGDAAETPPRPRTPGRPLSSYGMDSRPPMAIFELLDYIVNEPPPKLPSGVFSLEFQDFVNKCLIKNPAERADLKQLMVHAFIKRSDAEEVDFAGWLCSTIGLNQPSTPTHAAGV
PIM1 (human), sequence (P11309 whole entry, looked up): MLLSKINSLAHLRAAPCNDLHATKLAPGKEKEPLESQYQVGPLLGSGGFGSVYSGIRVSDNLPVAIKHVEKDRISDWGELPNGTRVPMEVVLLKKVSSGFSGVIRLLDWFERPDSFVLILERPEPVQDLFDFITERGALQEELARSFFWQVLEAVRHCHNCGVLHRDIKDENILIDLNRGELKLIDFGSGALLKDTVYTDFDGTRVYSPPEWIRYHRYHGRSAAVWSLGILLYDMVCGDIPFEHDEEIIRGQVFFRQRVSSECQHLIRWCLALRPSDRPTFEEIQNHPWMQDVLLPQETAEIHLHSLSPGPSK
ITK (human), sequence (Q08881 whole entry, looked up): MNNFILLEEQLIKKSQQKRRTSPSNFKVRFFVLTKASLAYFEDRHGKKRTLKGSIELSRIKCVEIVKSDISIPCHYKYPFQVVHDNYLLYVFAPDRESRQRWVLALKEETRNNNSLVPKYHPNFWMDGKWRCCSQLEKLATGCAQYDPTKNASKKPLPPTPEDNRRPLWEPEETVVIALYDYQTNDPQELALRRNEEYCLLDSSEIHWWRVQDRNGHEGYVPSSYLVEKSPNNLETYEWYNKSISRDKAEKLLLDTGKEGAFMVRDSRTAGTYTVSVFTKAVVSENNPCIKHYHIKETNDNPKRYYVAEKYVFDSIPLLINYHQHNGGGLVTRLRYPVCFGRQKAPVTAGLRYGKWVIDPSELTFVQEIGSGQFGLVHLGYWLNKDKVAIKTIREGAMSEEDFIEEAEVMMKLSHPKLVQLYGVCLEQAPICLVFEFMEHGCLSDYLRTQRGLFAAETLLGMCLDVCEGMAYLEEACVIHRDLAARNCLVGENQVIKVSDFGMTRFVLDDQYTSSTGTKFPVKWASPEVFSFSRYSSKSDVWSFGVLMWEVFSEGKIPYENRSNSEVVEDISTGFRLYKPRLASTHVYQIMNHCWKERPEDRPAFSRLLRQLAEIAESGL
MARK4 (human), sequence (Q96L34 whole entry, looked up): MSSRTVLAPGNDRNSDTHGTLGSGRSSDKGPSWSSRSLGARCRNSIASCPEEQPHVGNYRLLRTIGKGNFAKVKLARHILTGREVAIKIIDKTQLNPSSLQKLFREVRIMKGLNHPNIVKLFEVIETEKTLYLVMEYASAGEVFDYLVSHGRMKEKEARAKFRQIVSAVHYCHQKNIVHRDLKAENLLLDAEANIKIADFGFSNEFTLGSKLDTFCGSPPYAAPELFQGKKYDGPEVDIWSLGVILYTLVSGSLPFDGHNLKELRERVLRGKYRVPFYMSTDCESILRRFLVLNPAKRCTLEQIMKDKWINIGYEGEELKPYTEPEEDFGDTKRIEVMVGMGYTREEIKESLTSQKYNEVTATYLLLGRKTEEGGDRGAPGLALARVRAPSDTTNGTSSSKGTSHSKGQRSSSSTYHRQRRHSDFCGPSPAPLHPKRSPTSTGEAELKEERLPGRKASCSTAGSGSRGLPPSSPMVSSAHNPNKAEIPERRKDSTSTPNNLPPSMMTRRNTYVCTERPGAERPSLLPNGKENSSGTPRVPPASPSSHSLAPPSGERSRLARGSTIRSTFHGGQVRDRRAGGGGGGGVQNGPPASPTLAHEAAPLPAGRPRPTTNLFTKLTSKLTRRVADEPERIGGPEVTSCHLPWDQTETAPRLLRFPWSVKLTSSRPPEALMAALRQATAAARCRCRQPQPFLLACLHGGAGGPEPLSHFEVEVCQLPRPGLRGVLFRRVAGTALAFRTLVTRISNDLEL
CAMKK1 (human), sequence (Q8N5S9 whole entry, looked up): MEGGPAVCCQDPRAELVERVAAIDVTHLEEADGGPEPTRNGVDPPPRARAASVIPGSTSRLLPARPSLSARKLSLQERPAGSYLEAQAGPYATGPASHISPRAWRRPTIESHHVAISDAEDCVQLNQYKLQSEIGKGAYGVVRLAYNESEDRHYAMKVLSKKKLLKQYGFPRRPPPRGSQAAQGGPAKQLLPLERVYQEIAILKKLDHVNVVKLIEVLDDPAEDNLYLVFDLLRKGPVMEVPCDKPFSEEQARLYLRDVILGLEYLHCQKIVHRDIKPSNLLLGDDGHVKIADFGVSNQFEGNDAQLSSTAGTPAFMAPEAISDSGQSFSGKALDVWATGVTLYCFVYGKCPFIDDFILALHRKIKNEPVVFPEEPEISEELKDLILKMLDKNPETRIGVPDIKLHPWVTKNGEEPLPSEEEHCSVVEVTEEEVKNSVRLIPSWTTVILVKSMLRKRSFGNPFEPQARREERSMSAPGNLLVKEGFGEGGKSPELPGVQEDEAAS

The term residual activity denotes the signal under treatment as a percentage of the control signal. Consider `CN[C@@H]1C[C@H]2O[C@@](C)([C@@H]1OC)n1c3ccccc3c3c4c(c5c6ccccc6n2c5c31)C(=O)NC4`, for which the residual activity on ALK (human) worked out at 0.859%; at CDK5 CDK5R1 p25 (human), 2.78%; at ITK (human) it was 2.89%; at PIM1 (human), 1.47%; at AKT1 (human), 7.49%; on PRKACA (human), 1.93%. Further, the residual activity on CAMKK1 (human) is -3.13%; on LYN (human) it was 1.18% and 5.72%; at MARK4 (human), -0.0069%; on MAP2K1 (human), 3.83%.
